Consider two compounds from publication PMC11987024, “Kinetic Steering of Amyloid Formation and Polymorphism by Canagliflozin, a Type-2 Diabetes Drug” (Journal of the American Chemical Society, 2025).

Structures are written as SMILES. Residue numbers refer to the chain shown, from its start. Where only a bound is given, the exact number is not on record here.

In general, Kd refers to a measure of binding affinity in units of concentration.

Test [1] deals with T1, Islet amyloid polypeptide (IAPP, or amylin), wild-type (Homo sapiens, UniProt P10997).
T1 construct: SEC-purified monomer; N-terminally biotinylated at Lys1 (PEG4) for SPR only; cut from pro-islet amyloid polypeptide
T1 sequence (P10997 34-70): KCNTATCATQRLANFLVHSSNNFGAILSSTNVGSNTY
In words: T1ρ and WaterLOGSY ligand-observed NMR. The class given is binding. The note with it: IAPP monomer; 20 μM IAPP, 100 μM compound, 25 mM sodium phosphate pH 6.8, 1% v/v DMSO-d6, 5 °C.

Test [2] addresses T1, Islet amyloid polypeptide (IAPP, or amylin), wild-type. As to the kind of experiment: ThT fluorescence amyloid assembly assay. The class given is biochemical. The note with it: 10 μM IAPP, 50 μM compound, 160 mM ammonium acetate pH 7.4, 1% v/v DMSO, 30 °C, quiescent; mainly inhibits primary nucleation.
For test [3] the target is unchanged. As to the kind of experiment: SPR, biotinylated IAPP on streptavidin chip. Format: binding. (In general: SPR reads the build-up and loss of mass on a sensor chip optically.)
Test [4] concerns the target T2, Islet amyloid polypeptide (IAPP, or amylin), wild-type (Homo sapiens, UniProt P10997, S53G).
T2 construct: SEC-purified monomer; N-terminally biotinylated at Lys1 (PEG4) for SPR only; cut from pro-islet amyloid polypeptide
T2 sequence (P10997 34-70 S53G): T1 sequence (P10997 34-70) with S20G
In words: ThT fluorescence amyloid assembly assay. Format: biochemical. The settings on record: 160 mM ammonium acetate pH 7.4, 1% v/v DMSO, 30 °C; inhibition of amyloid formation.

With `Cc1ccc([C@@H]2O[C@H](CO)[C@@H](O)[C@H](O)[C@H]2O)cc1Cc1ccc(-c2ccc(F)cc2)s1` [canagliflozin], the “ligand binding (observed by NMR)” value in test [1] is “further evidence that canagliflozin binds IAPP monomers with strong changes in all protons”. Moreover, the “fold-change in half-time of amyloid formation at 50 μM” value in test [2] was found to be 1.55 ± 0.22 fold. In test [3], the dissociation constant Kd was over 150 µM. Further, the “ThT fluorescence amyloid assembly assay” value in test [4] is on record as “only canagliflozin was able to inhibit amyloid formation by the familial S20G variant of IAPP”.
As to `COc1cc2nc(N3CCN(C(=O)C4COc5ccccc5O4)CC3)nc(N)c2cc1OC` (centres unmarked) [doxazosin], in test [2], the “fold-change in half-time of amyloid formation at 50 μM” value came to 1.61 ± 0.29 fold.
